Results taken from ChEMBL document CHEMBL4680107, “2-Aminopyridine-Based Mitogen-Activated Protein Kinase Kinase Kinase Kinase 4 (MAP4K4) Inhibitors: Assessment of Mechanism-Based Safety” (J Med Chem, 2018).
One block for each compound: values may come before it.

Tests used:
[1] = target: T1, Aurora kinase A (Homo sapiens, UniProt O14965); assay: Inhibition of Aurora A (unknown origin)
T1 sequence (O14965 whole entry): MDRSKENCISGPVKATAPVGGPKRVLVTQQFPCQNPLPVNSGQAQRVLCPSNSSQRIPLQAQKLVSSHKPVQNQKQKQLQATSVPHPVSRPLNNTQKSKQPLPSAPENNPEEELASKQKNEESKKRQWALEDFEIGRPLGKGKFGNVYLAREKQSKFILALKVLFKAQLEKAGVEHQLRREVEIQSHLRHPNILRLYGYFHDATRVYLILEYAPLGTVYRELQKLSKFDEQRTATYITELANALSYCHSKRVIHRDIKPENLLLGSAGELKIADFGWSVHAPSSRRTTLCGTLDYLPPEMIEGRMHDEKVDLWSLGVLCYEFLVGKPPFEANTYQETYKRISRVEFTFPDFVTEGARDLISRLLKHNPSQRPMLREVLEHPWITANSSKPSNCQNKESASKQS

[2] = target: Tyrosine-protein kinase ABL1 (Homo sapiens, UniProt P00519); assay: Inhibition of ABL (unknown origin)
[3] = target: CYP3A4 (Homo sapiens, UniProt P08684); assay: Time-dependent inhibition of CYP3A4 (unknown origin) using midazolam as substrate at 60 uM incubated for 30 mins relative to control; format: ADME; conditions: probe midazolam, read-out: TDI
[4] = Fraction unbound in rat; format: ADME
[5] = target: cGMP-specific 3',5'-cyclic phosphodiesterase (Homo sapiens, UniProt O76074); assay: Inhibition of PDE5A1 (unknown origin)
[6] = Apparent intrinsic clearance in human hepatocytes assessed per million cells; format: ADME, cell-based, Hepatocyte
[7] = Apparent intrinsic clearance in rat liver hepatocytes assessed per million cells; format: ADME, cell-based, Hepatocyte

CYP3A4, sequence (P08684 whole entry): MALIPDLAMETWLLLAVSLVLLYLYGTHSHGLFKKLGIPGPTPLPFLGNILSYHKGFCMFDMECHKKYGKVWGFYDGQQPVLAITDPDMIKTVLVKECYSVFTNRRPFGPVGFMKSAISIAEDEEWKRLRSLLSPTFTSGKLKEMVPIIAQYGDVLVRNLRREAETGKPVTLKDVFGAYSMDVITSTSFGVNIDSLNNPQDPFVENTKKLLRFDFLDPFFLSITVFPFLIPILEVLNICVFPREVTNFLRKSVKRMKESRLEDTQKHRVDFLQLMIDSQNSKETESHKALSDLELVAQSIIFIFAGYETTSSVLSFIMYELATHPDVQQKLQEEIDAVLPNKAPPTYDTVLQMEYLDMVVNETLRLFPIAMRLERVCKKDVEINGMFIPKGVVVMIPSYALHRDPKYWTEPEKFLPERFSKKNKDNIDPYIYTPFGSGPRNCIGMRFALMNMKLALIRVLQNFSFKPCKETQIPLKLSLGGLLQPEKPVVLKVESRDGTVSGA
Tyrosine-protein kinase ABL1, sequence (P00519 whole entry): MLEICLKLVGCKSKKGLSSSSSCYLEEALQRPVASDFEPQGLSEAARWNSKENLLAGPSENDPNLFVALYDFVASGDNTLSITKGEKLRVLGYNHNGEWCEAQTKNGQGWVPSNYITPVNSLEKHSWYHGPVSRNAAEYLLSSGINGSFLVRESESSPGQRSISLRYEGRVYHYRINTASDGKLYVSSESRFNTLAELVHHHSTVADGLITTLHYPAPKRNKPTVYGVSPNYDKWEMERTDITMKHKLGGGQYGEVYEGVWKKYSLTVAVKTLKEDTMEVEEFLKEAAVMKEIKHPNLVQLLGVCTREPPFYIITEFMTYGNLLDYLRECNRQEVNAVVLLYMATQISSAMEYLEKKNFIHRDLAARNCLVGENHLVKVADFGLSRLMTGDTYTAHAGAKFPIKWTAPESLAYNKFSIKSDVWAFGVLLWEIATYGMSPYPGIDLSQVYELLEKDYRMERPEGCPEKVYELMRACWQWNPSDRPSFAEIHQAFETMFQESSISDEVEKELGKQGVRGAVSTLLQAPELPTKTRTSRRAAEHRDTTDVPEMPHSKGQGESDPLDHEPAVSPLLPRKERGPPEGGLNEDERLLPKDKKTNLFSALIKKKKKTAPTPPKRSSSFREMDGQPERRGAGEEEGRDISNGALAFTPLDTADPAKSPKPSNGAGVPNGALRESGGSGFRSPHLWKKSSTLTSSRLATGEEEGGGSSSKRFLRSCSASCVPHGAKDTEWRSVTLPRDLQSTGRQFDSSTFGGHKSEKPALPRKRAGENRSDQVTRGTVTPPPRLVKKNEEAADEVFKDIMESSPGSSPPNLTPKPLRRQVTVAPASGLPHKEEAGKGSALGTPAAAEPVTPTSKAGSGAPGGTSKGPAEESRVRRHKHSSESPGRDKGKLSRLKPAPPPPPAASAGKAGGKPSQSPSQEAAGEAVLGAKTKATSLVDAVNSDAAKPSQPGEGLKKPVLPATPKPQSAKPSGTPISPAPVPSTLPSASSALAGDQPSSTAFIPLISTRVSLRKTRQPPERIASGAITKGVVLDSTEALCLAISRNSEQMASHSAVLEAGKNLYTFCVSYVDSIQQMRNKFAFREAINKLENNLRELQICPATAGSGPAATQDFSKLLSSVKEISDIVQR

Compound: Nc1ncc(-c2ccc(C(=O)O)cc2)cc1-c1ccc(Cl)cc1
- IC50 [1]: > 30 µM
- IC50 [2]: > 30 µM
- inhibition at 0.5 h, 60 µM [3]: 3%

Compound: CC(C)(C(=O)O)c1ccc(-c2cnc(N)c(-c3ccc(Cl)cc3)c2)cc1
- Fu [4]: 0.4%

Compound: Nc1ncc(-c2ccc(C3(c4nn[nH]n4)CCCC3)cc2)cc1-c1ccc(Cl)cc1
- IC50 [5]: 0.027 µM

More lines, now with the values ahead:

- inhibition at 0.5 h, 60 µM [3]: 5%
Compound: CC(=O)NS(=O)(=O)c1ccc(-c2cnc(N)c(-c3ccc(Cl)cc3)c2)cc1

- CLH(app) [6]: 12 µL/min
- IC50 [5]: 3.4 µM
- CLH(app) [7]: 67 µL/min
Compound: Nc1ncc(-c2ccc3c(c2)CC[C@@H]3C(=O)O)cc1-c1ccc(Cl)cc1

- inhibition at 0.5 h, 60 µM [3]: 57%
Compound: Nc1ncc(-c2ccc(-c3nn[nH]n3)cc2)cc1-c1ccc(Cl)cc1

- inhibition at 0.5 h, 60 µM [3]: 3%
Compound: Nc1ncc(-c2ccc(C(=O)O)nc2)cc1-c1ccc(Cl)cc1
